According to patent US6737383B1, “Herbicidal oxadiazolidines” (priority 1999, dated 2004):

Tests used:
duck salad = test: Test B flood test duck salad; assay type: in vivo, Heteranthera limosa
Procedure, shortened: (§1)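 Flood test on plants grown to the 2-leaf stage; treated plants kept in greenhouse twelve to sixteen days, then visually rated against controls on a 0 (no effect) to 10 (complete control) scale.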

velvetleaf = test: Test B pre/postemergence velvetleaf; assay type: in vivo, Abutilon theophrasti
Procedure, shortened: (§2)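 Test chemicals in a non-phytotoxic solvent mixture with surfactant were sprayed preemergence onto planted seeds and postemergence onto plants 2 to 18 cm tall (1- to 4-leaf stage). After twelve to sixteen days in a greenhouse, injury was visually rated against untreated controls from 0 (no effect) to 10 (complete control).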

smallflower flatsedge = test: Test B flood test smallflower flatsedge; assay type: in vivo, Cyperus difformis
Procedure, shortened: as §1

wheat = test: Test B pre/postemergence wheat; assay type: in vivo, Triticum aestivum
Procedure, shortened: as §2

morningglory = test: Test B pre/postemergence morningglory; assay type: in vivo, Ipomoea hederacea
Procedure, shortened: as §2

crabgrass = test: Test B pre/postemergence crabgrass; assay type: in vivo, Digitaria sanguinalis
Procedure, shortened: as §2

pigweed = test: Test B pre/postemergence pigweed; assay type: in vivo, Amaranthus retroflexus
Procedure, shortened: as §2

purple nutsedge = test: Test B pre/postemergence purple nutsedge; assay type: in vivo, Cyperus rotundus
Procedure, shortened: as §2

sugar beet = test: Test B pre/postemergence sugar beet; assay type: in vivo, Beta vulgaris
Procedure, shortened: as §2

surinam grass = test: Test B pre/postemergence surinam grass; assay type: in vivo, Brachiaria decumbens
Procedure, shortened: as §2

wild oat = test: Test B pre/postemergence wild oat; assay type: in vivo, Avena fatua
Procedure, shortened: as §2

blackgrass = test: Test B pre/postemergence blackgrass; assay type: in vivo, Alopecurus myosuroides
Procedure, shortened: as §2

cocklebur = test: Test B pre/postemergence cocklebur; assay type: in vivo, Xanthium strumarium
Procedure, shortened: as §2

rape = test: Test B pre/postemergence rape; assay type: in vivo, Brassica napus
Procedure, shortened: as §2

bedstraw = test: Test B pre/postemergence bedstraw; assay type: in vivo, Galium aparine
Procedure, shortened: as §2

corn = test: Test B pre/postemergence corn; assay type: in vivo, Zea mays
Procedure, shortened: as §2

[1] = Rate 62 g/ha, headed Pre-emergence (flood test species), scale 0 to 10 (0 no effect, 10 complete control)
[2] = Rate 125 g/ha, Pre-emergence, flood test species, scale 0 to 10 where 0 is no effect and 10 is complete control
[3] = Rate 250 g/ha, Pre-emergence, flood-test species, scale 0 to 10, 0 is no effect, 10 is complete control
[4] = Preemergence, Rate 62 g/ha, scale of 0 to 10 where 0 is no effect and 10 is complete control
[5] = Preemergence, Rate 250 g/ha, scale 0 to 10, 0 is no effect, 10 is complete control
[6] = Preemergence, Rate 500 g/ha, scale of 0 to 10 where 0 is no effect and 10 is complete control
[7] = Rate 62 g/ha, Postemergence, scale of 0 to 10 where 0 is no effect and 10 is complete control
[8] = Rate 125 g/ha, Postemergence, scale 0 to 10
[9] = Preemergence, Rate 125 g/ha, 0 is no effect, 10 is complete control
[10] = Rate 500 g/ha, Postemergence, scale 0 to 10

## Cc1nc(C)c(-n2c(=O)on(C(=O)N(c3ccccc3)C(C)C)c2=O)s1 [Compound 197]
Duck salad; [1]
  Ducksalad plant response rating: 0
Duck salad; [2]
  Ducksalad plant response rating: 0
Duck salad; [3]
  Ducksalad plant response rating: 0
Duck salad; Rate 500 g/ha, headed Pre-emergence (flood test species), scale 0 to 10 (0 no effect, 10 complete control)
  Plant response rating, Ducksalad: 0
velvetleaf; [4]
  Velvetleaf plant response rating: 0
velvetleaf; [5]
  Velvetleaf plant response rating: 0
velvetleaf; [6]
  Plant response rating, Velvetleaf: 0
velvetleaf; [7]
  Velvetleaf plant response rating: 0
velvetleaf; [8]
  Velvetleaf plant response rating: 0
velvetleaf; Rate 250 g/ha, Postemergence
  Plant response rating (0 to 10; 0 is no effect, 10 is complete control), Velvetleaf: 0
Smallflower flatsedge; [1]
  S. Flatsedge plant response rating: 0
Smallflower flatsedge; [2]
  S. Flatsedge plant response rating: 0
Smallflower flatsedge; [3]
  S. Flatsedge plant response rating: 0
Smallflower flatsedge; Rate 500 g/ha, Pre-emergence, flood test species, scale 0 to 10 (0 no effect, 10 complete control)
  S. Flatsedge plant response rating: 0
wheat; [4]
  Wheat plant response rating: 0
wheat; [5]
  Wheat plant response rating: 0
wheat; [6]
  Plant response rating, Wheat: 0
wheat; [7]
  Wheat plant response rating: 0
wheat; [8]
  Wheat plant response rating: 0
wheat; Rate 250 g/ha, Postemergence
  Plant response rating (0 to 10; 0 is no effect, 10 is complete control), Wheat: 0
morningglory; [4]
  Morningglory plant response rating: 0
morningglory; [9]
  Morningglory plant response rating (0 to 10 scale): 0
morningglory; [5]
  Morningglory plant response rating: 0
morningglory; [6]
  Plant response rating, Morningglory: 0
morningglory; [7]
  Morningglory plant response rating: 3
morningglory; [8]
  Morningglory plant response rating: 5
morningglory; Rate 250 g/ha, Postemergence
  Plant response rating (0 to 10; 0 is no effect, 10 is complete control), Morningglory: 5
morningglory; [10]
  Morningglory plant response rating: 0
crabgrass; [4]
  Crabgrass plant response rating: 0
crabgrass; [9]
  Crabgrass plant response rating (0 to 10 scale): 0
crabgrass; [5]
  Crabgrass plant response rating: 0
crabgrass; [6]
  Plant response rating, Crabgrass: 3
crabgrass; [7]
  Crabgrass plant response rating: 0
crabgrass; [8]
  Crabgrass plant response rating: 0
crabgrass; Rate 250 g/ha, Postemergence
  Plant response rating (0 to 10; 0 is no effect, 10 is complete control), Crabgrass: 0
crabgrass; [10]
  Crabgrass plant response rating: 2
pigweed; [4]
  Redroot pigweed plant response rating: 0
pigweed; [9]
  Redroot pigweed plant response rating (0 to 10 scale): 0
pigweed; [5]
  Redroot pigweed plant response rating: 0
pigweed; [6]
  Plant response rating, Redroot pigweed: 0
pigweed; [7]
  Redroot pigweed plant response rating: 0
pigweed; [8]
  Redroot pigweed plant response rating: 0
pigweed; Rate 250 g/ha, Postemergence
  Plant response rating (0 to 10; 0 is no effect, 10 is complete control), Redroot pigweed: 0
pigweed; [10]
  Redroot pigweed plant response rating: 0
Purple nutsedge; [4]
  Nutsedge plant response rating: 0
Purple nutsedge; [9]
  Nutsedge plant response rating (0 to 10 scale): 0
Purple nutsedge; [5]
  Nutsedge plant response rating: 0
Purple nutsedge; [6]
  Plant response rating, Nutsedge: 0
Purple nutsedge; [7]
  Nutsedge plant response rating: 0
Purple nutsedge; [8]
  Nutsedge plant response rating: 0
Purple nutsedge; Rate 250 g/ha, Postemergence
  Plant response rating (0 to 10; 0 is no effect, 10 is complete control), Nutsedge: 0
Purple nutsedge; [10]
  Nutsedge plant response rating: 0
Sugar beet; [4]
  Sugarbeets plant response rating: 0
Sugar beet; [9]
  Sugarbeets plant response rating (0 to 10 scale): 0
Sugar beet; [5]
  Sugarbeets plant response rating: 0
Sugar beet; [6]
  Plant response rating, Sugarbeets: 0
Sugar beet; [7]
  Sugarbeets plant response rating: 0
Sugar beet; [8]
  Sugarbeets plant response rating: 0
Sugar beet; Rate 250 g/ha, Postemergence
  Plant response rating (0 to 10; 0 is no effect, 10 is complete control), Sugarbeets: 0
Sugar beet; [10]
  Sugarbeets plant response rating: 0
Surinam grass; [4]
  B. signalgrass plant response rating: 0
Surinam grass; [9]
  B. signalgrass plant response rating (0 to 10 scale): 0
Surinam grass; [5]
  B. signalgrass plant response rating: 0
Surinam grass; [6]
  Plant response rating, B. signalgrass: 0
Surinam grass; [7]
  B. signalgrass plant response rating: 0
Surinam grass; Rate 125 g/ha, Postemergence, scale 0 (no effect) to 10 (complete control)
  B. signalgrass plant response rating: 0
Surinam grass; Rate 250 g/ha, Postemergence, scale 0 to 10, 0 is no effect, 10 is complete control
  Plant response rating, B. signalgrass: 0
Surinam grass; Rate 500 g/ha, Postemergence, scale 0 to 10, 0 no effect, 10 complete control
  B. signalgrass plant response rating: 0
Wild oat; [4]
  Wild oats plant response rating: 0
Wild oat; [5]
  Wild oats plant response rating: 0
Wild oat; [6]
  Plant response rating, Wild oats: 0
Wild oat; [7]
  Wild oats plant response rating: 0
Wild oat; [8]
  Wild oats plant response rating: 0
Wild oat; Rate 250 g/ha, Postemergence
  Plant response rating (0 to 10; 0 is no effect, 10 is complete control), Wild oats: 0
blackgrass; [4]
  Blackgrass plant response rating: 0
blackgrass; [9]
  Blackgrass plant response rating (0 to 10 scale): 0
blackgrass; [5]
  Blackgrass plant response rating: 0
blackgrass; [6]
  Plant response rating, Blackgrass: 0
blackgrass; [7]
  Blackgrass plant response rating: 0
blackgrass; [8]
  Blackgrass plant response rating: 0
blackgrass; Rate 250 g/ha, Postemergence
  Plant response rating (0 to 10; 0 is no effect, 10 is complete control), Blackgrass: 0
blackgrass; [10]
  Blackgrass plant response rating: 0
cocklebur; [4]
  Cocklebur plant response rating: 0
cocklebur; [9]
  Cocklebur plant response rating (0 to 10 scale): 0
cocklebur; [5]
  Cocklebur plant response rating: 0
cocklebur; [6]
  Plant response rating, Cocklebur: 0
cocklebur; [7]
  Cocklebur plant response rating: 0
cocklebur; [8]
  Cocklebur plant response rating: 0
cocklebur; Rate 250 g/ha, Postemergence
  Plant response rating (0 to 10; 0 is no effect, 10 is complete control), Cocklebur: 0
cocklebur; [10]
  Cocklebur plant response rating: 0
rape; [4]
  Rape plant response rating: 0
rape; [9]
  Rape plant response rating (0 to 10 scale): 0
rape; [5]
  Rape plant response rating: 0
rape; [6]
  Plant response rating, Rape: 0
rape; [7]
  Rape plant response rating: 0
rape; [8]
  Rape plant response rating: 0
rape; Rate 250 g/ha, Postemergence
  Plant response rating (0 to 10; 0 is no effect, 10 is complete control), Rape: 0
rape; [10]
  Rape plant response rating: 0
bedstraw; [4]
  Bedstraw plant response rating: 0
bedstraw; [9]
  Bedstraw plant response rating (0 to 10 scale): 0
bedstraw; [5]
  Bedstraw plant response rating: 0
bedstraw; [6]
  Plant response rating, Bedstraw: 0
bedstraw; [7]
  Bedstraw plant response rating: 0
bedstraw; [8]
  Bedstraw plant response rating: 0
bedstraw; Rate 250 g/ha, Postemergence
  Plant response rating (0 to 10; 0 is no effect, 10 is complete control), Bedstraw: 0
corn; [4]
  Corn plant response rating: 0
corn; [9]
  Corn plant response rating (0 to 10 scale): 0
corn; [5]
  Corn plant response rating: 0
corn; [6]
  Plant response rating, Corn: 0
corn; [7]
  Corn plant response rating: 0
corn; [8]
  Corn plant response rating: 0
corn; Rate 250 g/ha, Postemergence
  Plant response rating (0 to 10; 0 is no effect, 10 is complete control), Corn: 0
corn; [10]
  Corn plant response rating: 0
